Laboratory results: ChEMBL document CHEMBL1201862, “PubChem BioAssay data set” (2004)
The source made the active and inactive calls.

Legend:
[1] = Luminescence Cell-Based Dose Response to Identify Activators of 5'UTR Stem-Loop Driven Prion Protein mRNA Translation in H4-C Neuroglioblastoma Cells. [Related pubchem assays: 1829 (Project Summary), 1814 (Primary HTS)]; format: functional
[2] = Luminescence Cell-Based Dose Response HTS to Identify Activators of Luciferase Translation or Activity in H4 […] Cells. [Related pubchem assays: 1829 (Project Summary), 1814 (Primary HTS)]; format: functional
H4 = assay: Luminescence Cell-Based Dose Response HTS to Identify Activators of 5'UTR Stem-Loop Driven Prion Protein mRNA Translation in H4 Neuroglioblastoma Cells. [Related pubchem assays: 1829 (Project Summary), 1814 (Primary HTS)]; format: functional; conditions: Homo sapiens
[3] = Luminescence Cell-Based Dose Response to Identify Activators of Luciferase Translation or Activity in H4-C Neuroglioblastoma Cells. [Related pubchem assays: 1829 (Project Summary), 1814 (Primary HTS)]; format: functional
[4] = Luminescence Cell-Based Dose Confirmation to Identify Activators of 5'UTR Stem-Loop Driven Alpha-Synuclein mRNA Translation in H4 Neuroglioblastoma Cells. [Related pubchem assays: 1829 (Project Summary), 1814 (Primary HTS)]; format: functional
Caspase-3 = target: T1, Caspase-3 (Homo sapiens, UniProt P42574); format: functional;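 further: Dose-response selectivity test against caspase-3 for candidate inhibitors of sentrin-specific proteases (SENPs)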
T1 sequence (P42574 whole entry): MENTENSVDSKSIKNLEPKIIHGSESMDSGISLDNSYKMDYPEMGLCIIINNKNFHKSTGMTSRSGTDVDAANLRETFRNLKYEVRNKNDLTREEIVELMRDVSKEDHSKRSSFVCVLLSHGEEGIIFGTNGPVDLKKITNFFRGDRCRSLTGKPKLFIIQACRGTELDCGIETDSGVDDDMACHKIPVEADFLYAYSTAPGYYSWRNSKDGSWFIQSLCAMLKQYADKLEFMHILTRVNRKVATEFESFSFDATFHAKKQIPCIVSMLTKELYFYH

[5] = target: T2, Sentrin-specific protease 7 (Homo sapiens, UniProt Q9BQF6); format: functional;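 further: Luminescence-based dose-response confirmation of ultra-high-throughput screening hits, measuring inhibition of SENP7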
T2 sequence (Q9BQF6 whole entry): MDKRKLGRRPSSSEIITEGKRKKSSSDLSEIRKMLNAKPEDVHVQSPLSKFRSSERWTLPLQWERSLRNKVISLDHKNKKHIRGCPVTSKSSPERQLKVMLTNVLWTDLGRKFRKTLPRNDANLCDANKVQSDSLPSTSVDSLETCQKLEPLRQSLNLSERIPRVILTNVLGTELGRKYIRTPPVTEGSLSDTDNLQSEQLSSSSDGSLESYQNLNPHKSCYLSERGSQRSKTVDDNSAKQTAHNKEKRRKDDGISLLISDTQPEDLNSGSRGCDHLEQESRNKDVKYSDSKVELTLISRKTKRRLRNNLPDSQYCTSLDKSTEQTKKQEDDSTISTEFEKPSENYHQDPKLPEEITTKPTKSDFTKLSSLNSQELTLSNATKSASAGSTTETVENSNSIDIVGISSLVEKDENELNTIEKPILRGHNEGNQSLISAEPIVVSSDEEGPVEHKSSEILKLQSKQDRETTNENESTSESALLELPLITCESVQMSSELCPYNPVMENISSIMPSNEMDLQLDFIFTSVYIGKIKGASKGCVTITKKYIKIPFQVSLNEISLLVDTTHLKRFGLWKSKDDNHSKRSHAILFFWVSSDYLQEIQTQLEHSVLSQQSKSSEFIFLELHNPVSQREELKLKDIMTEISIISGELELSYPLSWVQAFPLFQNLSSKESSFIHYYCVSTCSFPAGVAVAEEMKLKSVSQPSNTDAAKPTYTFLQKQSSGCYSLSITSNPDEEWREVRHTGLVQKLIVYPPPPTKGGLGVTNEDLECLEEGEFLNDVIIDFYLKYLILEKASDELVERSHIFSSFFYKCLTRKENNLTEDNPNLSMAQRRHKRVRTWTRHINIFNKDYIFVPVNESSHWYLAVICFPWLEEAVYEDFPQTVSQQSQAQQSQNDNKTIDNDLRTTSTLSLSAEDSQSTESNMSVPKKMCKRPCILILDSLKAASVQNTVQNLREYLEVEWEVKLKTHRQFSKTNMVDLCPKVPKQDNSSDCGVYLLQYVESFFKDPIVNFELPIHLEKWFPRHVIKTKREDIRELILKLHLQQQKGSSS

[6] = target: T3, Sentrin-specific protease 6 (Homo sapiens, UniProt Q9GZR1); format: functional;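 further: Luminescence-based dose-response confirmatory assay of SENP6 inhibition, following up an ultra-high-throughput screen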
T3 sequence (Q9GZR1 whole entry): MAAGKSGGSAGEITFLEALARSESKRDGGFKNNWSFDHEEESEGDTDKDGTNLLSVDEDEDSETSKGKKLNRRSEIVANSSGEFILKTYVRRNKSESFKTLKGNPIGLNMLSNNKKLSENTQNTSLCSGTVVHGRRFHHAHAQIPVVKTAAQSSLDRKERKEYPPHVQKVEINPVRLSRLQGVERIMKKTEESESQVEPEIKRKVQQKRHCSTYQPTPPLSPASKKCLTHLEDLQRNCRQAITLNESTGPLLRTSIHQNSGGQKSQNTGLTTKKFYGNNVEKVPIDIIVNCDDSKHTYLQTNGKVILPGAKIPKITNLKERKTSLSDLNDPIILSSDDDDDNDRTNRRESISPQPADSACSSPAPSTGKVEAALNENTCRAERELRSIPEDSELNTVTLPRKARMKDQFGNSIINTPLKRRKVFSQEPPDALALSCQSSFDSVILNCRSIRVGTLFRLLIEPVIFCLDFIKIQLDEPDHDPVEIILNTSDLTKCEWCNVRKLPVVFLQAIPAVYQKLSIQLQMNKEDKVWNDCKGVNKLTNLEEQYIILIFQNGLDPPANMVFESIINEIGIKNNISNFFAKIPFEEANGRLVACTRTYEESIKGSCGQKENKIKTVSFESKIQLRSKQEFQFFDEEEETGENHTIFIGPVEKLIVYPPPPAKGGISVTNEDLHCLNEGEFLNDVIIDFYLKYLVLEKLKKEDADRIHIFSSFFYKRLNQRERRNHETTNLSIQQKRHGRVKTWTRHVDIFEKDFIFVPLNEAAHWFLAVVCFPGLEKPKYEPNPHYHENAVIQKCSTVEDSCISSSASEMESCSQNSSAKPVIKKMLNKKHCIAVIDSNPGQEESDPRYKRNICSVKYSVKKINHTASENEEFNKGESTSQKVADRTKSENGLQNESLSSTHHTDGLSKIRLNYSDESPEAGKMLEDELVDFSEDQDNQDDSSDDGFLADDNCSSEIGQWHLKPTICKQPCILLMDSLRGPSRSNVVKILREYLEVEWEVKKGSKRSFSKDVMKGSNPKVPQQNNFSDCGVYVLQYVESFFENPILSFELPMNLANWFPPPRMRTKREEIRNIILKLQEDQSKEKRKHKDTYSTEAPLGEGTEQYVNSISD

[7] = target: T4, Sentrin-specific protease 8 (Homo sapiens, UniProt Q96LD8); format: functional;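 further: luminescence read-out of SENP8 inhibition, dose-response confirmation following an ultra-high-throughput screen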
T4 sequence (Q96LD8 whole entry): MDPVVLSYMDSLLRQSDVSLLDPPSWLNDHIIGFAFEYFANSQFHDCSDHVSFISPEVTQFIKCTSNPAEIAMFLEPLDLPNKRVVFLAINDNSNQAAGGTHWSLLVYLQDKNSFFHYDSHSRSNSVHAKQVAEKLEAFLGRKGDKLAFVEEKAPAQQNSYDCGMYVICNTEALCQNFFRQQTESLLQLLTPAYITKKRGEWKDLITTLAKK

[8] = target: T5, Oxysterols receptor LXR-beta (Homo sapiens, UniProt P55055); format: functional, cell-based;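 further: agonist activity at LXR measured by a cell-based luminescence readout across a dose range, run as a counterscreen for daf-12 agonists; HEK293 cells with Gal4-LXR fusion and GAL4-driven luciferase reporter; potency for activation of Gal4-LXR reporter so compounds are agonists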
T5 sequence (P55055 whole entry): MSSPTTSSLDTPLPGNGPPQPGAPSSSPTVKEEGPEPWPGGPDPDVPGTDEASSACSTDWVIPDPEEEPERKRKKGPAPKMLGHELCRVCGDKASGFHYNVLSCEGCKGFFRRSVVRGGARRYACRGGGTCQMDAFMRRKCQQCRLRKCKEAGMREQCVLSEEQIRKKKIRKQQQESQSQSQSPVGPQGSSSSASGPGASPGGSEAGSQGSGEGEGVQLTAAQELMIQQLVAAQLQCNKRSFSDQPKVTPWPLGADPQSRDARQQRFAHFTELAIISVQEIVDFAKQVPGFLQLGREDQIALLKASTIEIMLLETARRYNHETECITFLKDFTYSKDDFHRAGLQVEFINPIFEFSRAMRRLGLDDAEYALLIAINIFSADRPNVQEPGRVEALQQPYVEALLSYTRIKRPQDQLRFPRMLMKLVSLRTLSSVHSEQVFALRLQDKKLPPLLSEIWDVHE

[9] = reduction of Shn3 3'UTR-driven luciferase in osteoblasts – cell-based, Clone20 osteoblasts, firefly luciferase, cherry-picked, dose response (AID 624132); format: functional;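 further: firefly luciferase luminescence from reporter carrying the Shn3 3'UTR in osteoblasts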
[10] = loss of viability in HepG2 cells – cell-based, CellTiter-Glo, cherry-picked, cytotoxicity control for Shn3 inhibitor project, dose response (AID 624134); format: functional
[11] = non-specific 3'UTR reporter inhibition in Clone20-Shn3RL – cell-based, Renilla luciferase, cherry-picked, counter-screen for Shn3 inhibitor project, dose response (AID 624133); format: functional
Galanin receptor type 3 = target: T6, Galanin receptor type 3 (Homo sapiens, UniProt O60755); assay: Fluorescence-based cell-based primary high throughput dose response assay to identify antagonists of the Galanin Receptor 3 (GalR3).; format: functional
T6 sequence (O60755 whole entry): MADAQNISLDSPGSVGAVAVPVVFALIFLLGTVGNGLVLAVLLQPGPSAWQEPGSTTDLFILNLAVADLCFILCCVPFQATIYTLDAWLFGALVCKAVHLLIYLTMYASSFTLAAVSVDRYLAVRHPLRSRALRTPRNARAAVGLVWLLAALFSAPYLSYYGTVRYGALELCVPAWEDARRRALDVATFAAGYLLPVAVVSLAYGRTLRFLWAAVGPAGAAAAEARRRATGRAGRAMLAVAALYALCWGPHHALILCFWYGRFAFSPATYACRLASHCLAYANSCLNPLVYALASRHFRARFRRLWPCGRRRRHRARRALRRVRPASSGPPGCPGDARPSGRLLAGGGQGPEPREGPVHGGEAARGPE

cells = format: functional, cell-based; conditions: HEK-CNG
[12] = target: COUP transcription factor 2 (Homo sapiens, UniProt P24468); assay: Luminescence-based cell-based high throughput dose response assay to identify inhibitors of COUP-TFII (NR2F2).; format: functional;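 further: HEK293 cells transiently cotransfected with COUP-TFII expression vector and reporter; luciferase reporter luminescence driven by COUP-TFII from the pX2-168 reporter plasmid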
Chain of COUP transcription factor 2 (P24468 whole entry): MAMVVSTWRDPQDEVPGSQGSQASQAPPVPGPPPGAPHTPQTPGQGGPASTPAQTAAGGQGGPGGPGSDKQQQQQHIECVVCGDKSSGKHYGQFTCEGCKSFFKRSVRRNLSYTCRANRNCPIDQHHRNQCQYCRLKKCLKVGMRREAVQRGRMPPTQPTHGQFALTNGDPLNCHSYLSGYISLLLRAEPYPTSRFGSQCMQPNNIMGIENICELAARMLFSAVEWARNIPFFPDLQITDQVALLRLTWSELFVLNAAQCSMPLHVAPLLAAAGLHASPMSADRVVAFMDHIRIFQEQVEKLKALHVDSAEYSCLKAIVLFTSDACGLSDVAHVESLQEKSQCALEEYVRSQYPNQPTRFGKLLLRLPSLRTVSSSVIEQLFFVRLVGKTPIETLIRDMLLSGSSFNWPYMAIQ

Paired box protein Pax-8 = Paired box protein Pax-8 (Homo sapiens, UniProt Q06710); assay: PAX8 transcriptional activity inhibition in RMG-I – RMG-I cells, luciferase, cherry-pick, dose response (AID 687027); format: functional, cell-based;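 further: luciferase reporter driven by Pax8 target thyroperoxidase promoter measured by SteadyGlo luminescence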
Chain of Paired box protein Pax-8 (Q06710 whole entry): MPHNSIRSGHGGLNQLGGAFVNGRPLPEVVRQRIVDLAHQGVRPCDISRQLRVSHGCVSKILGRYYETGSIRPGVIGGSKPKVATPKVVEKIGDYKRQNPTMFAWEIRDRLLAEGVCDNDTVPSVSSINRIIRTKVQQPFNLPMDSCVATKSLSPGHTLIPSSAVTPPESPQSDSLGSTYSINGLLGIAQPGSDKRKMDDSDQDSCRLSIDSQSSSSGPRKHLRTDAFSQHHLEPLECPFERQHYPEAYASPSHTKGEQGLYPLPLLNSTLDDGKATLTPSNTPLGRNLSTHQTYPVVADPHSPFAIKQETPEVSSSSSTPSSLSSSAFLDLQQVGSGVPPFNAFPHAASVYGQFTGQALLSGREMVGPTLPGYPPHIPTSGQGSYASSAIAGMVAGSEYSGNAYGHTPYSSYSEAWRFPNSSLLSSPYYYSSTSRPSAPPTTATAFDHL

[13] = IGROV1 cell killing – plate reader, dry powder samples, PAX8 inhibitor project, dose response (AID 743043); format: functional, cell-based; conditions: IGROV-1
[14] = OVCAR8 cell viability loss – plate reader, dry powder samples, PAX8 project, dose response (AID 743197); format: functional, cell-based; conditions: OVCAR-8
Protein Wnt-3a = Protein Wnt-3a (Mus musculus, UniProt P27467); assay: antagonism of Wnt3a pathway luciferase reporter – Wnt-LIGHT cells, luminescence, selectivity assay for Gli-SUFU antagonist project, dose response (AID 651570); format: functional; conditions: read-out: IC50_Mean;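 further: Wnt-LIGHT reporter cells stimulated with conditioned medium from Wnt3a-producing cells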
Chain of Protein Wnt-3a (P27467 whole entry): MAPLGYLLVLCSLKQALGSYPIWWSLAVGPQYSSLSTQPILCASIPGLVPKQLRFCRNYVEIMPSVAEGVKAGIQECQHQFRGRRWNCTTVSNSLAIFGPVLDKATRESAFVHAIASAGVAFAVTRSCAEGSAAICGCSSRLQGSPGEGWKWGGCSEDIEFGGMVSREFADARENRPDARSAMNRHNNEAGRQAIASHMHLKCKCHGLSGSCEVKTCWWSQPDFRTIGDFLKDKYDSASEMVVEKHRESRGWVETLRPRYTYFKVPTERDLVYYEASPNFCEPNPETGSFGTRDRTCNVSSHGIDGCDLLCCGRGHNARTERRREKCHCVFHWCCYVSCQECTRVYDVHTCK

Cc1ccc(S(=O)(=O)NC(=NC(S)=Nc2ccccc2)c2ccccc2)cc1
EC50 [1]: 0.308 µM (active) | EC50 [2]: < 0.1 µM (inconclusive) | EC50 (H4): < 0.1 µM (active) | EC50 [3]: 2.54 µM (active) | EC50 [4]: 0.786 µM (active) | IC50 (Caspase-3): 20.4 µM (active) | IC50 [5]: 4.8 µM (active) | IC50 [6]: 14.1 µM (active) | IC50 [7]: 22.5 µM (active) | EC50 [8]: > 67.5 µM (inactive)

Fc1ccc(N=C(S)N2CCCN(c3ccc(C(F)(F)F)cn3)CC2)c(F)c1
AC50 [9]: 3.71 µM (active) | AC50 [10]: 1.09 µM (active) | AC50 [11]: 27 µM (active) | IC50 (Galanin receptor type 3): 0.142 µM (active) | EC50 (cells): > 29.9 µM (inactive) | IC50 [12]: 3.07 µM (active)

C[C@H]1CCCCO[C@H](CN(C)C(=O)NC2CCCCC2)[C@@H](C)CN([C@@H](C)CO)C(=O)c2cc(NC(=O)Nc3ccc(C(F)(F)F)cc3)ccc2O1
AC50 (Paired box protein Pax-8): 8.03 µM (active) | AC50 [13]: 47.5 µM (active) | AC50 [14]: 67.2 µM (active)

CC[C@@H](O)C[C@H]1CCC[C@@]2(C[C@@H]3OC(=O)/C=C/[C@@](C)(O)[C@@H](O)[C@H](C)[C@@H](O)[C@H](OC4CCC(N(C)C)C(C)O4)[C@@H](O)[C@](C)(O)CCCCC/C=C/[C@@H]4CC(C)(C)O[C@@]4(O)C[C@H](O2)[C@H]3C)O1 (stereo partly drawn)
AC50 [10]: 20.1 µM (active) | AC50 [11]: < 0.26 µM (active) | IC50 (Protein Wnt-3a): 0.0061 µM (active) | IC50 [12]: > 0.013 µM (active)
